For the experiment, the system named is U87MG cells. Nature of the experiment: Proliferation assay (MTT-based) on U87MG tumour cells. Conditions: Homo sapiens, U-87 MG, 96 h, 4 days of incubation, negative log value of the IC50-value, read-out: cell proliferation pIC50 (converted). On the procedure: U87MG cells are human glioblastoma cells with wild type p53. In this cell line MDM2 tightly controls p53 expression.
Cellular activity of the compounds of formula (I) was determined on U87MG tumour cells using a colorimetric assay for cell toxicity or survival (see example C.2).
All compounds tested were dissolved in DMSO and further dilutions were made in culture medium. Final DMSO concentrations never exceeded 0.1% (v/v) in cell proliferation assays. Controls contained U87MG cells and DMSO without compound and blanks contained DMSO but no cells.
U87MG cells were seeded in 96-well cell culture plates at 3000 cells/well/100 μl. 24 hours later, medium was changed and compound and/or solvent were added to a final volume of 200 μl. Following 4 days of incubation, medium was replaced by 200 μl fresh medium and cell growth was assessed using a MTT-based assay. Therefore, 25 μl of the MTT solution (0.5% MTT research grade from Serva in phosphate-buffered saline) was added to each well and the cells were further incubated for 2 hours at 37° C. The medium was then carefully aspirated and the blue MTT-formazan product was dissolved by adding to each well 25 μl 0.1 M glycin and 100 μl DMSO. The plates were shaken for another 10 min on a micro plate shaker before reading absorbance at 540 nm by a Biorad micro plate reader.
Within an experiment, the results for each experimental condition are the mean of 3 replicate wells. For initial screening purposes, compounds were tested at a single fixed concentration of 10^−5 M. For active compounds, the experiments were repeated to establish full concentration-response curves. For each experiment, controls (containing no drug) and a blank incubation (containing no cells or drugs) were run in parallel. The blank value was subtracted from all control and sample values. For each sample, the mean value for cell growth (in absorbance units) was expressed as a percentage of the mean value for cell growth of the control. When appropriate, IC50-values (concentration of the drug, needed to reduce cell growth to 50% of the control) were computed using probit analysis for graded data (Finney, D. J., Probit Analyses, 2nd Ed. Chapter 10, Graded Responses, Cambridge University Press, Cambridge 1962). Herein the effects of test compounds are expressed as pIC50 (the negative log value of the IC50-value) (see table F-2).

SMILES strings stand for the structures. Some results are limits rather than exact numbers.

Take `c1ccc2c(CCCNCc3ccc(Nc4ccncc4)cc3)c[nH]c2c1` [Compound 72]: the IC50 is 2000 nM.
The same measure for `c1cncc(Nc2ccc(NCCc3c[nH]c4ccccc34)cc2)c1` [Compound 6]: 3160 nM; for `O=[N+]([O-])c1cccc2c(Nc3ccc(NCCc4c[nH]c5ccccc45)cc3)ccnc12` [Compound 23]: 398 nM.
The same measure for `CC(NCCN)c1cc(Nc2ccc(NCCc3c[nH]c4ccccc34)cc2)ccn1` (stereo not shown) [Compound 89]: 3980 nM; for `CCOc1cc(Nc2ccnc3c2CCCC3O)ccc1NCCc1c[nH]c2cc(OC)ccc12` (stereo not shown) [Compound 197]: 251 nM.
Regarding `COc1ccc2[nH]cc(CCNc3ccc(Nc4ccnc5ccccc45)cc3)c2c1` [Compound 32], the IC50 was 158 nM.
As for `c1ccc(COCc2cc(Nc3ccc(NCCc4c[nH]c5ccccc45)cc3)ccn2)cc1` [Compound 167], the figure is 3980 nM; as for `CC(=O)OC(C)(C)c1cc(Nc2ccc(NCCc3c[nH]c4ccccc34)cc2)ccn1` [Compound 202], 3160 nM; as for `COC(C)c1cc(Nc2ccc(NCCc3c[nH]c4ccccc34)cc2)ccn1` (stereo not shown) [Compound 150], 3160 nM.
Take `CCN(CC)Cc1cc(Nc2ccc(NCCc3c[nH]c4ccccc34)cc2)ccn1` [Compound 161]: the IC50 was 1000 nM.
As for `CC(NCCCCO)c1cc(Nc2ccc(NCCc3c[nH]c4ccccc34)cc2)ccn1` (stereo not shown) [Compound 100], the figure is 3980 nM; as for `CC(NCCNC(=O)OCc1ccccc1)c1cc(Nc2ccc(NCCc3c[nH]c4ccccc34)cc2)ccn1` (stereo not shown) [Compound 88], 3160 nM.
As for `O=C(c1cc(Nc2ccc(NCCc3c[nH]c4ccccc34)cc2)ccn1)N1CCCC1` [Compound 49], the figure is more than 10000 nM; as for `NC(=O)C(Cc1c[nH]c2ccccc12)Nc1ccc(Nc2ccncc2)cc1` (stereo not shown) [Compound 65], more than 10000 nM; as for `CC(CO)(CO)C1CCN(C(=O)C(Cc2c[nH]c3ccccc23)Nc2ccc(Nc3ccncc3)cc2)CC1` (stereo not shown) [Compound 221], 3980 nM.
`CC(C)(C)OC(=O)N(CCc1cn(C(=O)OC(C)(C)C)c2ccccc12)c1ccc(Nc2ccncc2)cc1` [Compound 226]: the IC50 is 3160 nM.
`OCc1cc(Nc2ccc(NCCc3c[nH]c4ccccc34)cc2)c2ccccc2n1` [Compound 14]: the IC50 is 39.8 nM.
As for `CC(C)(O)c1cc(Nc2ccc(NCCc3c[nH]c4ccccc34)cc2)ccn1` [Compound 201], the figure is 3160 nM; as for `COc1ccc2c(CCNc3ccc(Nc4ccncc4)cc3)c[nH]c2c1` [Compound 54], 126 nM; as for `CCOc1cc(Nc2ccnc(CO)c2)ccc1NCCc1c[nH]c2cc(OC)ccc12` [Compound 69], 100 nM.
The same measure for `c1ccc2c(CCNc3ccc(Nc4ccncc4)cc3)c[nH]c2c1` [Compound 36]: 200 nM; for `Cc1cccc2c(CCNc3ccc(Nc4ccncc4)cc3)c[nH]c12` [Compound 187]: 398 nM.
The same measure for `O=C(C(Cc1c[nH]c2ccccc12)Nc1ccc(Nc2ccncc2)cc1)N1CCN(CCOCCO)CC1` (stereo not shown) [Compound 116]: more than 10000 nM; for `O=C(CCc1ccccc1)NCc1cc(Nc2ccc(NCCc3c[nH]c4ccccc34)cc2)ccn1` [Compound 131]: 2510 nM.
With `c1ccc(COc2cc(Nc3ccnc4ccccc34)ccc2NCCc2c[nH]c3ccccc23)cc1` [Compound 17], the IC50 is 631 nM.
As for `c1ccc2c(CCNc3ccc(Nc4ccnc5[nH]ccc45)cc3)c[nH]c2c1` [Compound 198], the figure is 1260 nM; as for `c1ccc2c(CCNc3ccc(Nc4ccnc(CN5CCCC5)c4)cc3)c[nH]c2c1` [Compound 53], 631 nM; as for `COc1cccc2[nH]cc(CCNc3ccc(Nc4ccncc4)cc3)c12` [Compound 191], 3160 nM.
As for `c1ccc(CC(CNc2ccc(Nc3ccncc3)cc2)c2c[nH]c3ccccc23)cc1` (stereo not shown) [Compound 101], the figure is 2510 nM.
The same measure for `CCOC(C)c1cc(Nc2ccc(NCCc3c[nH]c4ccccc34)cc2)ccn1` (stereo not shown) [Compound 149]: 2000 nM; for `c1ccc2c(CCNc3ccc(Nc4ccnc(CNCCN5CCOCC5)c4)cc3)c[nH]c2c1` [Compound 153]: 2510 nM; for `CCOc1cc(Nc2ccnc(C(C)O)c2)ccc1NCCc1c[nH]c2cc(OC)ccc12` (stereo not shown) [Compound 205]: 794 nM.
With `COc1ccc2c(CCNc3ccc(Nc4ccnc5c4CCC5O)cc3)c[nH]c2c1` (stereo not shown) [Compound 196], the IC50 was 200 nM.
Turning to `c1ccc(COc2cc(Nc3ccncc3)ccc2NCCc2c[nH]c3ccccc23)cc1` [Compound 61], the IC50 was 316 nM.
The same measure for `c1ccc2c(CCCCNc3ccc(Nc4ccncc4)cc3)c[nH]c2c1` [Compound 74]: 1580 nM; for `NCCNCc1cc(Nc2ccc(NCCc3c[nH]c4ccccc34)cc2)ccn1` [Compound 93]: more than 10000 nM; for `O=C(NCCCCCO)C(Cc1c[nH]c2ccccc12)Nc1ccc(Nc2ccncc2)cc1` (stereo not shown) [Compound 118]: more than 10000 nM.
As for `CC(NCc1ccccc1)c1cc(Nc2ccc(NCCc3c[nH]c4ccccc34)cc2)ccn1` (stereo not shown) [Compound 140], the figure is 2510 nM; as for `CCC(O)c1cc(Nc2ccc(NCCc3c[nH]c4ccccc34)cc2)ccn1` (stereo not shown) [Compound 203], 3160 nM.
With `OC(c1cc(Nc2ccc(NCCc3c[nH]c4ccccc34)cc2)ccn1)C1CC1` (stereo not shown) [Compound 136], the IC50 is 2000 nM.
The same measure for `c1ccc(CCNCc2cc(Nc3ccc(NCCc4c[nH]c5ccccc45)cc3)ccn2)cc1` [Compound 163]: 3160 nM; for `CC(C)(C)OC(=O)N(CCc1cn(C(=O)OC(C)(C)C)c2ccccc12)c1ccc(Nc2ccnc(Cl)c2)cc1` [Compound 102]: more than 10000 nM; for `COc1cccc2c(CCNc3ccc(Nc4ccncc4)cc3)c[nH]c12` [Compound 188]: 794 nM.
The same measure for `OCc1cc(Nc2ccc(NCCc3c[nH]c4ccccc34)cc2)cc(CO)n1` [Compound 135]: 1000 nM.
The same measure for `c1ccc2c(CCNc3ccc(Nc4ccnc(CNCCCN5CCOCC5)c4)cc3)c[nH]c2c1` [Compound 166]: more than 10000 nM; for `c1ccc2c(CCNc3ccc(N(c4ccncc4)c4ccncc4)cc3)c[nH]c2c1` [Compound 228]: 7940 nM.
Regarding `O=C(NCCO)c1cc(Nc2ccc(NCCc3c[nH]c4ccccc34)cc2)ccn1` [Compound 52], the IC50 was 501 nM.
As for `Clc1cccc(CC(CNc2ccc(Nc3ccncc3)cc2)c2c[nH]c3ccccc23)c1` (stereo not shown) [Compound 199], the figure is 2000 nM; as for `N#CCNCc1cc(Nc2ccc(NCCc3c[nH]c4ccccc34)cc2)ccn1` [Compound 157], 1580 nM; as for `c1ccc2c(CCNCCc3ccc(Nc4ccncc4)cc3)c[nH]c2c1` [Compound 75], 3160 nM.
Turning to `CCc1cc(Nc2ccc(NCCc3c[nH]c4ccccc34)cc2)c2ccccc2n1` [Compound 33], the IC50 was 63.1 nM.
The same measure for `CCC(O)c1cnccc1Nc1ccc(NCCc2c[nH]c3ccccc23)cc1` (stereo not shown) [Compound 127]: 7940 nM; for `c1ccc2c(CCNc3ccc(Nc4ccnnc4)cc3)c[nH]c2c1` [Compound 119]: more than 10000 nM.
As for `c1ccc2c(CCNc3ccc(Nc4ccnc5c4CCC5)cc3)c[nH]c2c1` [Compound 4], the figure is 10 nM; as for `O=C(C(Cc1c[nH]c2ccccc12)Nc1ccc(Nc2ccncc2)cc1)N1CCCC1CO` (stereo not shown) [Compound 208], more than 10000 nM; as for `OCCc1cc(Nc2ccc(NCCc3c[nH]c4ccccc34)cc2)ccn1` [Compound 51], 316 nM.
The same measure for `CC(C)(CO)C1CCN(C(=O)C(Cc2c[nH]c3ccccc23)Nc2ccc(Nc3ccncc3)cc2)CC1` (stereo not shown) [Compound 220]: 6310 nM; for `COC(=O)c1cc(Nc2ccc(NCCc3c[nH]c4ccccc34)cc2)cc(C(=O)OC)n1` [Compound 109]: more than 10000 nM; for `O=C(C(Cc1c[nH]c2ccccc12)Nc1ccc(Nc2ccncc2)cc1)N(CCO)Cc1ccccc1` (stereo not shown) [Compound 214]: more than 10000 nM.
For `CS(=O)(=O)NCc1cc(Nc2ccc(NCCc3c[nH]c4ccccc34)cc2)ccn1` [Compound 129], the IC50 was 2000 nM.
The same measure for `c1ccc(CCCOCc2cc(Nc3ccc(NCCc4c[nH]c5ccccc45)cc3)ccn2)cc1` [Compound 171]: more than 10000 nM.
As for `N#CCCNCc1cc(Nc2ccc(NCCc3c[nH]c4ccccc34)cc2)ccn1` [Compound 162], the figure is 3160 nM.
The same measure for `COc1cc(NCCc2c[nH]c3ccccc23)ccc1Nc1ccncc1` [Compound 85]: 158 nM; for `CC(O)C1CCN(C(=O)C(Cc2c[nH]c3ccccc23)Nc2ccc(Nc3ccncc3)cc2)CC1` (stereo not shown) [Compound 225]: 158 nM.
